The source of these data is patent US20250057785A1, “APPLICATION OF 10'(Z), 13'(E), 15'(E)-HEPTADECATRIENYL HYDROQUINONE (HQ17(3)) IN TREATING CORONAVIRUS INFECTION” (National Atomic Research Institute, priority 2023, published 2025).

The structures appear in SMILES notation.

The conditions of data set [1]: intraperitoneal injection of 1 mg/kg daily for 28 days, F344 rats; cited from earlier work.
The test system of a further data set is blood cancer HL-60 cells. Particulars: 5 uM, cultured for 48 hours; cited from earlier work.
In data set [2] the test system is novel coronavirus (SARS-COV-2). As to the kind of experiment: Vero E6 cells plaque assay of SARS-COV-2 replication. The data set is classed as cell-based.
Data set [3] deals with peripheral white blood cells. Particulars: cited from earlier work.

For the molecule `C/C=C/C=C/C/C=C\CCCCCCCCCc1cc(O)ccc1O` [HQ17(3), 10′(Z), 13′(E), 15′(E)-Heptadecatrienyl hydroquinone], the toxicity in rats entry in data set [1] was “no toxicity was observed”. Also, the “replication of HL-60 cells” value with blood cancer HL-60 cells was “the replication of blood cancer HL-60 cells was stopped”. Also, the “virus inhibition rate (viral plaques)” value in data set [2] (10 uM HQ17(3), stock in 0.1% DMSO, Vero E6 cells, one week) was “more than 60%”. For the same molecule, the concentration for a half-maximal effect (EC50) in data set [2] (Severe acute respiratory syndrome coronavirus 2, Vero C1008, 168 h, read-out: EC50, inhibition of SARS-COV-2 replication in cells by 50%) was 8.5 ± 0.96 µM. Also, the “effect on peripheral white blood cells” value in data set [3] (5 uM) is “no effect on peripheral white blood cells”. The “toxicity on peripheral white blood cells” value in data set [3] (50 uM) is on record as “no toxicity on peripheral white blood cells was observed”.

A word on the EC50: it is the midpoint of the concentration-response curve.
